# Data: patent EP0973746B1, “SUBSTITUTED 3-CYANO QUINOLINES” (Wyeth Holdings Corporation, priority 1997, dated 1998)
# Where two headings read alike, the source gives them in different places.
# Columns and labels:
# CCRF-CFM = test: Inhibition of cancer cell growth as measured by cell number, CCRF-CFM; format: cell-based; details: Homo sapiens, read-out: IC50 CCRF-CFM
# B7474 = test: Inhibition of cancer cell growth as measured by cell number, B7474; format: cell-based; details: Homo sapiens, read-out: IC50 B7474
# A27805 = test: Inhibition of cancer cell growth as measured by cell number, A27805; format: cell-based; details: Homo sapiens, read-out: IC50 A27805
# CX1 = test: Inhibition of cancer cell growth as measured by cell number, CX1; format: cell-based; details: Homo sapiens, read-out: IC50 CX1
# MIP = test: Inhibition of cancer cell growth as measured by cell number, MIP; format: cell-based; details: Homo sapiens; cell number, Sulforhodamine B, 48 hours exposure; Table 4; read-out: IC50 MIP
# DU145 = test: Inhibition of cancer cell growth as measured by cell number, DU145; format: cell-based; details: Homo sapiens, read-out: IC50 DU145
# T47D = test: Inhibition of cancer cell growth as measured by cell number, T47D; format: cell-based; details: Homo sapiens
# LX1 = test: Inhibition of cancer cell growth as measured by cell number, LX1; format: cell-based; details: Homo sapiens, read-out: IC50 LX1
# CCL228 = test: Inhibition of cancer cell growth as measured by cell number, CCL228; format: cell-based; details: Homo sapiens, read-out: IC50 CCL228
# HL60 = test: Inhibition of cancer cell growth as measured by cell number, HL60; format: cell-based; details: Homo sapiens, read-out: IC50 HL60
# NHEK = test: Inhibition of cell growth by incorporation of [3H]-thymidine, NHEK; format: cell-based, human; details: Homo sapiens, [3H]-thymidine incorporation, read-out: IC50 NHEK
# A549 = test: Inhibition of cancer cell growth as measured by cell number, A549; format: cell-based; details: Homo sapiens, read-out: IC50 A549
# LS174T = test: Inhibition of cancer cell growth as measured by cell number, LS174T; format: cell-based; details: Homo sapiens
# CACO2 = test: Inhibition of cancer cell growth as measured by cell number, CACO2; format: cell-based; details: Homo sapiens, read-out: IC50 CACO2
# SW620 = test: Inhibition of cancer cell growth as measured by cell number, SW620; format: cell-based, human; details: Homo sapiens, SW-620, 48 h, Table 4;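 also: SW620 was included as a cell line with little or no EGFR or HER2/neu expression, in contrast to receptor-overexpressing lines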
# Description: (§1) The cell lines were chosen since they overexpressed epidermal growth factor receptor (EGFR) (i.e. A431) or HER2/neu (SKBR3), or had little to no expression of the these receptors (SW620, LOX, MCF7).
# A431 [1] = test: Inhibition of cancer cell growth as measured by cell number, A431; format: cell-based, human; details: Homo sapiens, A-431, 48 h, Table 6;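 also: human A431 line, picked because it overexpresses epidermal growth factor receptor (EGFR)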
# Description: as §1
# HCT15 = test: Inhibition of cancer cell growth as measured by cell number, HCT15; format: cell-based; details: Homo sapiens, read-out: IC50 HCT15
# A431 [2] = test: Inhibition of cell growth by incorporation of [3H]-thymidine, A431; format: cell-based, human; details: Homo sapiens
# LOX = test: Inhibition of cancer cell growth as measured by cell number, LOX; format: cell-based, human; details: Homo sapiens, LOX, 48 h, Table 6;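 also: LOX cells served as a line with low or absent EGFR and HER2/neu expression, in contrast to receptor-overexpressing lines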
# Description: as §1
# [3] = target: epidermal growth factor receptor kinase (Homo sapiens, UniProt P00533); test: biochemical
# HTB161 = test: Inhibition of cancer cell growth as measured by cell number, HTB161; format: cell-based; details: Homo sapiens, read-out: IC50 HTB161
# SW948 = test: Inhibition of cancer cell growth as measured by cell number, SW948; format: cell-based; details: Homo sapiens, read-out: IC50 SW948
# PC3 = test: Inhibition of cancer cell growth as measured by cell number, PC3; format: cell-based; details: Homo sapiens, read-out: IC50 PC3
# A2780DDP = test: Inhibition of cancer cell growth as measured by cell number, A2780DDP; format: cell-based; details: Homo sapiens, read-out: IC50 A2780DDP
# [4] = target: recombinant human MEK 1 (MAPKK) and recombinant human ERK2 (MAPK); test: Mitogen Activated Protein Kinase (MAPK) assay, two component coupled MEK 1 / ERK2; format: biochemical; details: separate entries for the same compound = evaluated more than one time;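 also: MEK 1-activated ERK2 phosphorylates MBP or Myc peptide with 33P-ATP, filter capture and scintillation counting, inhibitor preincubated with ERK2 30 min at 0 °C, inhibition relative to uninhibited control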
# SKBR3 = test: Inhibition of cancer cell growth as measured by cell number, SKBR3; format: cell-based, human; details: Homo sapiens, SK-BR-3, 48 h, read-out: IC50 SKBR3, cell number, Sulforhodamine B, 48 hours exposure; Table 7;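 also: SK-BR-3 cells were selected as a line overexpressing HER2/neu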
# Description: as §1
# MCF7 = test: Inhibition of cancer cell growth as measured by cell number, MCF7; format: cell-based, human; details: Homo sapiens, MCF7, 48 h, read-out: IC50 MCF7, cell number, Sulforhodamine B, 48 hours exposure; Table 5;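 also: MCF7 was included as a line with little or no EGFR or HER2/neu expression, in contrast to the receptor-overexpressing lines of the panel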
# Description: as §1
# COLO205 = test: Inhibition of cancer cell growth as measured by cell number, COLO205; format: cell-based; details: Homo sapiens, COLO 205, 48 h, read-out: IC50 COLO205
# LNCAP = test: Inhibition of cancer cell growth as measured by cell number, LNCAP; format: cell-based; details: Homo sapiens, 48 h, read-out: IC50 LNCAP
# NEC = test: Inhibition of cancer cell growth as measured by cell number, NEC; format: cell-based; details: Homo sapiens, 48 h, read-out: IC50 NEC
# [5] = cell number, Sulforhodamine B, 48 hours exposure, Table 4
# [6] = A-431, [3H]-thymidine incorporation, A431, read-out: IC50 A431
# Sequence of epidermal growth factor receptor kinase (P00533 25-1210): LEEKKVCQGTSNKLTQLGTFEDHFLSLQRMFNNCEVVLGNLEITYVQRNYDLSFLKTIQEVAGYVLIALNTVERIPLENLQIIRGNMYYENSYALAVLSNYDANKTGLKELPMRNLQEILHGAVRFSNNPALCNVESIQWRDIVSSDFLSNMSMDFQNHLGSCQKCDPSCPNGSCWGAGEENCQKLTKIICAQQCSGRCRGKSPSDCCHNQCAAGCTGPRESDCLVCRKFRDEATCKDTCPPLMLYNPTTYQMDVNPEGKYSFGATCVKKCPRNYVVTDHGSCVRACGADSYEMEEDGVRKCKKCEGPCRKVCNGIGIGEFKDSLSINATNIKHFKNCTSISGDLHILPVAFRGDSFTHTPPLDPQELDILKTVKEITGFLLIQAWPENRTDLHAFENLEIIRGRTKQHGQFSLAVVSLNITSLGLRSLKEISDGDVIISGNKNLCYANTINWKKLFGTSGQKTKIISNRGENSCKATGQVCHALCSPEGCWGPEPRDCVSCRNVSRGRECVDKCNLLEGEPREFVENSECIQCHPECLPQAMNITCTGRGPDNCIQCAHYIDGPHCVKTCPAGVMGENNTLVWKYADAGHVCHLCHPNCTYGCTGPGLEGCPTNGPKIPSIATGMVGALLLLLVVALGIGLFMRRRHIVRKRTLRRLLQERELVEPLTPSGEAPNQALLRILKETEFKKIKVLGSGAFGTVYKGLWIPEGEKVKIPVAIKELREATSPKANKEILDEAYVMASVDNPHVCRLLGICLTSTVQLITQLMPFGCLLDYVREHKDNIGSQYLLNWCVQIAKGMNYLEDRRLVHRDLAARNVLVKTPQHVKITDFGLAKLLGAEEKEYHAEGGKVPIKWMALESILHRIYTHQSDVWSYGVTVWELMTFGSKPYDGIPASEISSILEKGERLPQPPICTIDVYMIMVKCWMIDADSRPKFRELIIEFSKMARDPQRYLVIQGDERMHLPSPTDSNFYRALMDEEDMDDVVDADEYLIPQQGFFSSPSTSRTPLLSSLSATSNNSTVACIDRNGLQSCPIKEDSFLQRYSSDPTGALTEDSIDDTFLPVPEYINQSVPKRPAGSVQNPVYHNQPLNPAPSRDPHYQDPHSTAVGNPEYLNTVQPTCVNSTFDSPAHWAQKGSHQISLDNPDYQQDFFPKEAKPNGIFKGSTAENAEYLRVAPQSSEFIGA
compound,measurement,setting,value
"CC(=O)Nc1ccc2ncc(C#N)c(Nc3cccc(Br)c3)c2c1 [Example 16, N-[4-[(3-Bromophenyl)amino]-3-cyano-6-quinolinyl] acetamide]",IC50,"CCRF-CFM; cell number, Sulforhodamine B, 48 hours exposure, Table 7",0.729 mg/L
same,IC50,"B7474; cell number, Sulforhodamine B, 48 hours exposure, Table 6",0.899 mg/L
same,IC50,A27805; [5],0.602 mg/L
same,IC50,"CX1; CX-1, cell number, Sulforhodamine B, 48 hours exposure, Table 4",0.978 mg/L
same,IC50,MIP,0.534 mg/L
same,IC50,"DU145; DU-145, cell number, Sulforhodamine B, 48 hours exposure, Table 7",0.113 mg/L
same,IC50,"T47D; cell number, Sulforhodamine B, 48 hours exposure, Table 6, read-out: IC50 T47D",6.55 mg/L
same,IC50,"LX1; LX-1, cell number, Sulforhodamine B, 48 hours exposure, Table 6",0.644 mg/L
same,IC50,"CCL228; cell number, Sulforhodamine B, 48 hours exposure, Table 5",4.38 mg/L
same,IC50,"HL60; HL-60, cell number, Sulforhodamine B, 48 hours exposure, Table 7",0.696 mg/L
same,IC50,NHEK,0.06 µM
same,IC50,"A549; A549, cell number, Sulforhodamine B, 48 hours exposure, Table 6",0.214 mg/L
same,IC50,"LS174T; cell number, Sulforhodamine B, 48 hours exposure, Table 5, read-out: IC50 LS174T",0.434 mg/L
same,IC50,"CACO2; Caco-2, cell number, Sulforhodamine B, 48 hours exposure, Table 5",0.71 mg/L
same,IC50,"SW620; cell number, Sulforhodamine B, 48 hours exposure, read-out: IC50 SW620",> 100 mg/L
same,IC50,"A431 [1]; cell number, Sulforhodamine B, 48 hours exposure, read-out: IC50 A431",0.766 mg/L
same,IC50,"HCT15; HCT-15, cell number, Sulforhodamine B, 48 hours exposure, Table 5",0.641 mg/L
same,IC50,A431 [2]; [6],1.8 µM
same,IC50,"LOX; cell number, Sulforhodamine B, 48 hours exposure, read-out: IC50 LOX",0.316 mg/L
same,IC50,[3],0.0015 µM
same,IC50,HTB161; [5],0.667 mg/L
same,IC50,"SW948; SW948, cell number, Sulforhodamine B, 48 hours exposure, Table 5",0.928 mg/L
same,IC50,"PC3; PC-3, cell number, Sulforhodamine B, 48 hours exposure, Table 7",3.04 mg/L
same,IC50,A2780DDP; [5],0.596 mg/L
"N#Cc1cnc2ccc([N+](=O)[O-])cc2c1Nc1ccc(Br)c(Br)c1 [Example 20, 4-[(3,4-Dibromophenyl)amino]-6-nitro-3-quinolinecarbonitrile]",IC50,NHEK,0.65 µM
same,IC50,A431 [2]; [6],35 µM
"COc1cc2ncc(C#N)c(Nc3cccc(C#N)c3)c2cc1OC [Example 45, 4-[(3-Cyanophenyl)amino]-6,7-dimethoxy-3-quinolinecarbonitrile]",IC50,[4],> 100 µM
same,IC50,CCRF-CFM; 48 h,> 100 mg/L
same,IC50,B7474; 48 h,86.8 mg/L
same,IC50,A27805; 48 h,8.66 mg/L
same,IC50,"CX1; CX-1, 48 h",89.7 mg/L
same,IC50,MIP,> 100 mg/L
same,IC50,"DU145; DU-145, 48 h",8.94 mg/L
same,IC50,"T47D; 48 h, read-out: IC50 T47D",30 mg/L
same,IC50,SKBR3,60.5 mg/L
same,IC50,"LX1; LX-1, 48 h",100 mg/L
same,IC50,CCL228; 48 h,> 100 mg/L
same,IC50,MCF7,57.8 mg/L
same,IC50,COLO205,> 100 mg/L
same,IC50,"HL60; HL-60, 48 h",> 100 mg/L
same,IC50,LNCAP,57.8 mg/L
same,IC50,"A549; A549, 48 h",100 mg/L
same,IC50,"LS174T; 48 h, read-out: IC50 LS174T",87.1 mg/L
same,IC50,"CACO2; Caco-2, 48 h",0.911 mg/L
same,IC50,"SW620; read-out: IC50 SW620, cell number, Sulforhodamine B, 48 hours exposure",> 100 mg/L
same,IC50,"A431 [1]; read-out: IC50 A431, cell number, Sulforhodamine B, 48 hours exposure",2.61 mg/L
same,IC50,"HCT15; HCT-15, 48 h",79.7 mg/L
same,IC50,"A431 [2]; A-431, read-out: IC50 A431",0.15 µM
same,IC50,"LOX; read-out: IC50 LOX, cell number, Sulforhodamine B, 48 hours exposure",9.06 mg/L
same,IC50,[3],1.67 µM
same,IC50,HTB161; 48 h,4.21 mg/L
same,IC50,"SW948; SW948, 48 h",> 100 mg/L
same,IC50,"PC3; PC-3, 48 h",88.9 mg/L
same,IC50,A2780DDP; 48 h,39.3 mg/L
same,IC50,NEC,72.1 mg/L
